Test results: PMC11851430, “Workflow for E3 Ligase Ligand Validation for PROTAC Development” (ACS Chemical Biology, 2025)

Tests used:
Jurkat cells = assay: CellTiterGlo cell viability assay; assay type: cell-based, human; details: Homo sapiens, 24 h, mean of triplicates, ^b/^c values estimated, read-out: IC50±sd/μM (cell viability)
Description: The effects of the compounds on cell viability was determined using the CellTiter-Glo® 2.0 Cell Viability Assay (Promega: G9241) following manufacturer’s protocol. Ten µL of Jurkat cells at […]
After equilibration, PROTACs were titrated at various concentrations using an Echo acoustic […]
volume of CellTiter-Glo® 2.0 reagent (10 µL) was added to each well and cells were incubated for 10 minutes at room temperature. Filtered luminescence was measured on a PHERAstar plate reader (BMG Labtech) and data was evaluated using GraphPad Prism 9 software employing a normalized curve it with the following equation: Y=Bottom + (Top-Bottom)/(1+10(LogEC50-X) *HillSlope).
Sample preparation. Jurkat cells (ATCC © HTB-22) were cultured in RPMI (Thermo: […]

[1] = biological target: T1, kinase protein levels in MCF-7 cells (Homo sapiens, UniProt A0A0B4J2F0); assay: TMT-labeled quantitative proteomics; assay type: cell-based; details: protein PIGBOS1; MCF7; 1 µM; set1.1
T1 construct: endogenous in cells; host or cells: MCF-7
T1 sequence (A0A0B4J2F0 1-54): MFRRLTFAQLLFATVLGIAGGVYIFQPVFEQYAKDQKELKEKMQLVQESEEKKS
Description: (§1) 50 µl of SDS Lysis Buffer (2% SDS, 50 mM TRIS pH 8.5, 10 mM TCEP, 40 mM CAA) was added to each sample. Cells were transferred into low binding reaction tubes (Eppendorf:
(§2) Methanol/Chloroform Precipitation. 200 µl of methanol and 50 µl of chloroform were added to each sample reaction tube and mixed via vortex. 150 µl of milliQ-H2O were added and samples were vortexed further. Samples were centrifuged for 5 minutes at 15000 g and the aqueous layer above the interphase was removed. 150 µl of methanol was added, samples were vortexed and centrifuged for 10 minutes at 15000 g to precipitate the pellet. The aforementioned wash procedure was repeated twice before transferring the pellet to a new low bind reaction tube in which it was allowed to dry for 5 minutes.
(§3) Dissolving the Protein Pellet and Protein Quantification. 50 µl of digestion buffer (8 M Urea, 50 mM TRIS pH 8) was added to each sample before vortexing and shaking at 750 rpm at room temperature for 10 minutes to solubilize the pellet. Protein quantification via PierceTM […]
(§4) Protein Digestion. Samples were diluted 1:2 with 50 mM TRIS pH 8.5 to reach a final concentration of 4 M Urea. Lys-C (Promega: VA1170) was added at a 1:100 enzyme/substrate ratio. Samples were agitated at 550 rpm and 37 °C for 3 h. Samples were further diluted with 50 mM TRIS pH 8.5 to a final concentration of 1 M Urea and Trypsin (Promega: V5280) was added at a 1:100 enzyme/substrate ratio. Samples were agitated overnight at 550 rpm and 37 °C. The digestion was stopped the following day via addition of TFA to a final concentration […]
(§5) Solid Phase Extraction via C18 Cartridges. Sep-Pak C18 Cartridges (Waters: WAT054955) were used for solid phase extraction of digested peptides. For preconditioning of C18 cartridges, 1 mL of methanol was added to each column followed by 1 mL of solution B (0.1% formic acid, 80% acetonitrile) and 1 mL of solution A (0.1% formic acid, ddH2O) twice. Samples […]
(§6) were loaded to their respective columns and once samples had passed, columns were washed twice with solution A to remove unwanted components from the loading step. Elution of samples was carried out via introduction of 40% and 60% acetonitrile steps. Samples were dried and snap frozen in liquid nitrogen.
(§7) TMT-Labeling. Desalted peptides were dried and resuspended in TMT-labeling buffer (200 mM EPPS pH 8.2, 20% acetonitrile). 10 μg of peptides per condition were subjected to TMT labeling with 1:2.5 peptide TMT ratio (w/w) for 1 h at room temperature. The labeling reaction was quenched by addition of hydroxylamine to a final concentration of 0.5% and incubation at room temperature for 15 minutes. Successful TMT labeling was verified by mixing equimolar ratios of peptides and subjecting the mix to single shot LC-MS/MS analysis. For high pH reversed phase fractionation on a Dionex analytical HPLC, 50 µg of pooled and purified TMT labelled samples were resuspended in 10 mM ammonium-bicarbonate (ABC), 5% acetonitrile, and separated on a 250 mm long C18 column (Aeris Peptide XB-C18, 4.6 mm ID, 2.6 µm particle size; Phenomenex) using a multistep gradient from 100% solvent A (5% acetonitrile, 10 mM ABC in water) to 60% solvent B (90% acetonitrile, 10 mM ABC in water) over 70 minutes. Eluting peptides were collected every 45 seconds into a total of 96 fractions, which were cross-concatenated into 24 fractions and dried in a vacuum concentrator and resuspended in 3% acetonitrile with 0.1% TFA for LC-MS analysis.
(§8) Mass spectrometry data acquisition. Tryptic peptides were analyzed on an Orbitrap Lumos coupled to an easy nLC 1200 (ThermoFisher Scientific) using a 35 cm long, 75 µm ID fused-silica column packed in house with 1.9 µm C18 particles (Reprosil pur, Dr. Maisch), and kept at 50 °C using an integrated column oven (Sonation). HPLC solvents consisted of 0.1% formic acid in water (buffer A) and 0.1% formic acid and 80% acetonitrile in water (buffer B). Assuming

[2] = system: kinase protein levels in MCF-7 cells; assay: TMT-labeled quantitative proteomics; assay type: cell-based, human; details: for log2FC (compound/DMSO): MCF7, 1 µM, set1.1
Description: as §1, §2, §3, §4, §5, §6, §7, §8

[3] = system: kinase protein levels in Jurkat cells; assay: TMT-labeled quantitative proteomics; assay type: cell-based, human; details: Jurkat, 1 µM, set1.2
Description: cultured in RPMI (Thermo: 11875093) supplemented as mentioned above. Cells were seeded in 6 well plates (Greiner: 657160) at a cell density of 1·10 6 cells/well and left at 37 °C and 5% […]
as §1
0030108116) and samples were boiled for 15 minutes at 95 °C and sonicated for 2 minutes.
as §2
Dissolving the Protein Pellet and Protein Quantification. 50 µl of digestion buffer (8 M Urea, 50 mM TRIS pH 8) was added to each sample before vortexing and shaking at 750 rpm at room temperature for 10 minutes to solubilize the pellet. Protein quantification via PierceTM BCA Protein Assay Kit (Thermo: 23225) was carried out according to manufacturer’s protocol.
as §4, §5, §6
TMT-Labeling. Desalted peptides were dried and resuspended in TMT-labeling buffer (200 mM EPPS pH 8.2, 20% acetonitrile). 10 μg of peptides per condition were subjected to TMT labeling with 1:2.5 peptide TMT ratio (w/w) for 1 h at room temperature. The labeling reaction was quenched by addition of hydroxylamine to a final concentration of 0.5% and incubation at room temperature for 15 minutes. Successful TMT labeling was verified by mixing equimolar ratios of peptides and subjecting the mix to single shot LC-MS/MS analysis. For high pH reversed phase fractionation on a Dionex analytical HPLC, 50 µg of pooled and purified TMT labelled samples were resuspended in 10 mM ammonium-bicarbonate (ABC), 5% acetonitrile, […]
particle size; Phenomenex) using a multistep gradient from 100% solvent A (5% acetonitrile, 10 mM ABC in water) to 60% solvent B (90% acetonitrile, 10 mM ABC in water) over 70 minutes. Eluting peptides were collected every 45 seconds into a total of 96 fractions, which were cross-concatenated into 24 fractions and dried in a vacuum concentrator and resuspended in 3% acetonitrile with 0.1% TFA for LC-MS analysis.
Mass spectrometry data acquisition. Tryptic peptides were analyzed on an Orbitrap Lumos coupled to an easy nLC 1200 (ThermoFisher Scientific) using a 35 cm long, 75 µm ID fused-

VHL = VHL (Homo sapiens, UniProt P40337); assay: NanoBRET target engagement assay; details: permeabilized cells
VHL, sequence (P40337 whole entry): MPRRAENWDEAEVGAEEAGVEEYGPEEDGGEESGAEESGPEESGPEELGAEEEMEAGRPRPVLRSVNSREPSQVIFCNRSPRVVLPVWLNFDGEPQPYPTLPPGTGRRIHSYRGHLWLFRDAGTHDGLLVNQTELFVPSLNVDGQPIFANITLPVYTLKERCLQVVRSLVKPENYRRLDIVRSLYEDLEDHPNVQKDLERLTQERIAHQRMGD
Description: Compounds were pipetted at various concentrations using an Echo acoustic dispenser (Labcyte), immediately followed by Tracer K10 (Promega, Tracer DB ID: T000008) for AAK1 and Aurora A and VHL Tracer (Promega, Tracer DB ID: T000019) for VHL, at an optimum KD concentration chosen from TracerDB ( tracerdb.org), respectively.
To measure the BRET signal, the NanoBRET® NanoGlo Substrate (Promega:
N1573) was added as per the manufacturer’s protocol, and filtered luminescence was measured on a PHERAstar plate reader (BMG Labtech) equipped with a luminescence filter pair (450 nm BP filter (donor) and 610 nm LP filter (acceptor)). For NanoBRET® measurement in permeabilized cells, 25 nL of digitonin (0.05 μg/μL) was pipetted into each well using an
After incubation, the BRET signals were measured by a PHERAstar plate reader (BMG Labtech) following the same procedure as intact NanoBRET® measurement. Competitive displacement data were then normalized to controls and were plotted using GraphPad Prism 9 software employing a normalized 3-parameter curve fit with the following equation:

IC50 (Jurkat cells): 8.5 ± 0.8 µM
P.Value (compound/DMSO) [1]: 0.867
log2FC (compound/DMSO) [1]: -0.01736
VHL binding (VHL): did not bind strongly to VHL
SMILES: Cc1ncsc1-c1ccc(CNC(=O)[C@@H]2C[C@@H](O)CN2C(=O)[C@@H](NCCOCCOCCOCCOCCC(=O)N2CCN(c3ccc(Nc4ncc(Cl)c(Nc5ccccc5C(N)=O)n4)cc3)CC2)C(C)(C)C)cc1 [6-c]
kinase degradation ([2]; MCF-7 cells, 1 μM, 6 h): did not result in significant degradation of any kinase
log2FC (compound/DMSO) ([2]; protein NBPF19;NBPF15;NBPF8;NBPF10;NBPF26;NBPF14): -0.692
log2FC (compound/DMSO) ([2]; protein NUDT4): -0.0761
log2FC (compound/DMSO) ([3]; protein NUDT4): 0.05309
log2FC (compound/DMSO) ([3]; protein PIGBOS1): -0.1563
log2FC (compound/DMSO) ([3]; protein TRAV8-2): -0.1064
log2FC (compound/DMSO) ([3]; protein TRBV12-3;TRBV12-4): -0.03811
